Read-outs that look alike come from different tables or passages of the source.
Experiments:
Tca-8113 cells [1] = assay: Transmission electron microscopy of ultrastructural changes; assay type: cell-based; settings: 40 μmol/l PTS, 1 h
Procedure: To investigate the mechanisms of PTS-induced cell death, the present invention uses transmission electron microscopy analysis to observe the changes in ultrastructures of Tca-8113 cells. Tca-8113 cells were treated with 40 μmol/l PTS or dimethyl sulfoxide for 1 h. The ultrastructural changes were observed using a transmission electron microscope. […] More secondary lysosomes (pointed by arrow) with high electron density were observed after PTS treatment. Lysosomal instability was proposed to control the fate of cells either through activation of apoptosis or necrosis.

Tca-8113 cells [2] = assay: cells; assay type: cell-based; settings: 1 h
Procedure: Next, cancer cell death is measured by using flow cytometric analysis. Tca-8113 cells were treated with 40 μmol/l and 80 μmol/l PTS or DMSO (control) for 1 h. Cells were stained with Annexin V− FITC and propidium iodide (PI), followed by flow cytometric analysis.

[3] = system: Human gingival fibroblast (HGF) cells; assay type: cell-based
Procedure: (§1) To examine the effects of PTS on cell viability, Tca-8113 and HGF cells were treated with different doses of PTS for 1 h. The 3-(4,5-dimethylthiazol-2-yl)-2,5-diphenyltetrazolium bromide (MTT) assay is conducted by treating Tca-8113 and human gingival fibroblast (HGF) cells with 2.5 μmol/l, 5 μmol/l, 10 μmol/l, 20 μmol/l, 40 μmol/l and 80 μmol/l PTS for 1 h, respectively. The effects of PTS on cell viability were assessed using MTT 72 h after treatment. […] PTS induces more significant cell death in […] cells than that in normal gingival fibroblasts. Taking the 10 μmol/l […] treatment for example, about 50% Tca-8113 cells were suppressed while only 10% […] cells were suppressed, so the suppression ratio (cancer cell suppression %/normal cell suppression %) is 5. Similarly, the suppression ratios of 20 μmol/l, 40 μmol/l and 80 μmol/l are 2.6, 1.8, 1.05.

Tca-8113 cells [4] = assay type: cell-based; settings: human; for intracellular PTS concentration variation between Tca-8113 cells and HGF cells: 10 min
Procedure: Firstly, Tca-8113 were treated with PTS or dimethyl sulfoxide (DMSO) (control vehicle) and then extract the intracellular matrix subjected to high-performance liquid chromatography.
(§2) In assessing the accumulation of intracellular PTS between Tca-8113 cells and normal cells after different doses and incubation periods of PTS treatment, Tca-8113 and Human gingival fibroblast (HGF) cells were treated 2.5 μmol/l˜80 μmol/l PTS for different periods. Please see FIG. 2A and FIG. 2B, which show the plots of intracellular PTS concentration after 2.5 μmol/l˜80 μmol/l PTS treatment for different periods of time in Tca-8113 and HGF cell, respectively. […] However, the accumulated intracellular PTS concentration in […] cells is much higher than that in HGF cells. […] The intracellular PTS concentration variation between the Tca-8113 cells and HGF cells can range from 5× (20 μmol/l), 8× (40 μmol/l) to 12 (80 μmol/l).

Tca-8113 cells [5] = assay: Lactate dehydrogenase (LDH) release assay (necrosis); assay type: cell-based; settings: 80 μmol/l PTS, 1 h
Procedure: Furthermore, in studying PTS-induced necrosis, LDH release assay is used. LDH is a cytosolic enzyme that can be released into culture medium upon damage of the plasma membrane. Necrosis, which results in an early loss of plasma membrane integrity, can be determined using the LDH release assay. In LDH release assay, Tca-8113 cells were treated with 80 μmol/l PTS or DMSO for 1 h; PTS-induced necrosis was determined using the lactate dehydrogenase (LDH) release assay.

[6] = system: Lysosomes of Tca-8113 cells; assay: Lysosomal integrity assay (LMP), lysosomal β-galactosidase free activity; assay type: biochemical; settings: isolated lysosomes of Tca-8113 cells
Procedure: Next, a lysosomal integrity assay (LMP) is performed to assess the effects of PTS on lysosomal membrane integrity. Lysosomes of Tca-8113 cells were isolated using the Percoll gradient centrifugation method. The effects of PTS on lysosomal integrity were assessed by measuring the activity of lysosomal β-galactosidase using UMBG (4-methylumbelliferyl-β-D-galactoside). The 4-methylumbelliferone released was determined by measuring its fluorescence (excitation: 365 nm, emission: 444 nm) on a fluorescence spectrophotometer. The activity of the enzyme measured in the presence and absence of 0.36% Triton X-100 was designated the […], respectively.

[7] = system: Human gingival fibroblast (HGF) cells; assay type: cell-based; settings: 10 min
Procedure: as §2

cytochrome c = assay: Western blot analysis of cytosolic cytochrome c; assay type: cell-based; settings: Tca-8113 cells, 40 μmol/l and 80 μmol/l PTS, 1 h
Procedure: (§3) Increased lysosomal permeability is reported to induce mitochondrial damage and the release of pro-apoptotic factors. The applicant therefore investigated the cytosolic cytochrome c released from the mitochondria after PTS treatment. […] Inhibition of ATP biosynthesis is observed when Tca-8113 cells were treated with 40 μmol/l PTS or DMSO for […]. The effects of PTS on ATP biosynthesis were assessed by measuring chemiluminescence. […] 40 μmol/l PTS treatment for 1 h attenuated ATP biosynthesis to 65.8%.

Tca-8113 cells [8] = assay: Transwell migration assay; assay type: cell-based; settings: 40 μmol/l PTS, 1 h
Procedure: The effect of PTS on the invasive ability of cancer cells is also investigated. Tca-8113 cells were treated with 40 μmol/l PTS or DMSO for 1 h; the effects of PTS on cell migration were determined using a transwell migration assay.

[9] = cited from earlier work
Tca-8113 cells [10] = assay: Colony formation assay; assay type: cell-based; settings: 80 μmol/l PTS
Source text: Colony formation assay shown in FIG. 6 further confirms the cytotoxic effects of PTS on Tca-8113 cells.

Tca-8113 cells [11] = assay: MTT cell viability assay; assay type: cell-based; settings: for suppression ratio (cancer cell suppression %/normal cell suppression %): Tca-8113 vs HGF
Procedure: as §1

cathepsin B = assay: Western blot analysis of cleaved cathepsin B; assay type: cell-based; settings: Tca-8113 cells, 40 μmol/l PTS, 1 h
Procedure: In the western blot analysis, Tca-8113 cells are analyzed after 40 μmol/l PTS treatment for 1 h.

[12] = system: mitochondrial ATP biosynthesis in Tca-8113 cells; assay: ATP biosynthesis by chemiluminescence; assay type: cell-based; settings: 40 μmol/l PTS
Procedure: as §3

Tca-8113 cells [13] = assay: Morphologic changes by phase-contrast microscope; assay type: cell-based; settings: 40 μmol/l PTS for 1 h
Procedure: Next, in observing the morphological feature of the treated cells, Tca-8113 and HGF cells were treated with 40 μmol/l PTS or DMSO (control vehicle) for 1 h; the morphologic changes were observed using a phase-contrast microscope.

[14] = read-out: Viable cells (Annexin V−/PI−)
[15] = 10 μmol/l for 1 h, MTT 72 h after treatment

In the case of `Cc1ccc(S(N)(=O)=O)cc1` [PTS, para-toluenesulfonamide], the ultrastructural changes (Tca-8113 cells [1]) is reported as “shrunk nuclei and an irregular nuclear membrane”, the “Late apoptotic/necrotic rate (Annexin V+/PI+)” value (Tca-8113 cells [2]; 40 μmol/l PTS) is reported as 11.5% and the “early apoptotic rate (Annexin V+/PI−)” value (Tca-8113 cells [2]; 40 μmol/l PTS) is reported as 20.2%. For the same compound, the “Late apoptotic/necrotic rate (Annexin V+/PI+)” value (Tca-8113 cells [2]; 80 μmol/l PTS) was 15.9%, the “early apoptotic rate (Annexin V+/PI−)” value (Tca-8113 cells [2]; 80 μmol/l PTS) was 64.1% and the viability at 40 µM (Tca-8113 cells [2]; [14]) was 67.5%. For the same compound, the viability at 80 µM (Tca-8113 cells [2]; [14]) was 19.8%, the HGF cells suppressed [3, 15] was 10% and the “inhibitory effects of PTS in HGF cells” value ([3]; human, 1 h) was “significantly decreased compared with that in Tca-8113 cells”. The “intracellular PTS concentration” value (Tca-8113 cells [4]) was “increase the intracellular PTS concentration in Tca-8113 cells in a dose dependent manner”, the “intracellular PTS concentration variation between Tca-8113 cells and HGF cells” value (Tca-8113 cells [4]; 20 μmol/l) was 5 × and the “intracellular PTS concentration variation between Tca-8113 cells and HGF cells” value (Tca-8113 cells [4]; 40 μmol/l) was 8 ×. The “intracellular PTS concentration variation between Tca-8113 cells and HGF cells” value (Tca-8113 cells [4]; 80 μmol/l) was 12, the “LDH release compared with the control group” value (Tca-8113 cells [5]) was “two-fold increase” and the “free enzyme activity (lysosomal β-galactosidase)” value [6] was “significantly increase free enzyme activity in a dose-dependent manner”. The “intracellular PTS accumulation” value [7] was “significantly inhibited in HGF cells compared with that in Tca-8113 cells”, the “cytosolic cytochrome c expression” value (cytochrome c) was “significantly induced cytosolic cytochrome c expression” and the “invasive ability (cell migration)” value (Tca-8113 cells [8]) was “significantly reduced the invasive ability of Tca-8113 cells”. The “solubility in water or a water-based solution” value [9] was “not readily dissolved in water or in a water-based solution”, the “number of viable cells (colony formation)” value (Tca-8113 cells [10]) was “almost completely suppressed the number of viable cells” and the Tca-8113 cells suppressed (Tca-8113 cells [11]; [15]) was “about 50%”. The “suppression ratio (cancer cell suppression %/normal cell suppression %)” value (Tca-8113 cells [11]; 10 μmol/l) was 5, the “suppression ratio (cancer cell suppression %/normal cell suppression %)” value (Tca-8113 cells [11]; 20 μmol/l) was 2.6 and the “suppression ratio (cancer cell suppression %/normal cell suppression %)” value (Tca-8113 cells [11]; 40 μmol/l) was 1.8. For the same compound, the “number of viable cells” value (Tca-8113 cells [11]; 80 μmol/l PTS for 1 h, MTT 72 h after treatment) was “almost completely suppressed the number of viable cells”, the “suppression ratio (cancer cell suppression %/normal cell suppression %)” value (Tca-8113 cells [11]; 80 μmol/l) was 1.05 and the “viability of Tca-8113 cells” value (Tca-8113 cells [11]; 2.5-80 μmol/l PTS for 1 h, MTT 72 h after treatment) was “significantly reduced the viability of Tca-8113 cells in a dose-dependent manner”. The “cleaved cathepsin B expression” value (cathepsin B) was “significantly increases cleaved cathepsin B expression”, the “mitochondrial ATP biosynthesis” value ([12]; 24-48 h) was “significantly inhibited mitochondrial ATP biosynthesis in a time-dependent manner” and the “ATP biosynthesis attenuated to” value ([12]; 1 h) was 65.8%. The morphologic changes (Tca-8113 cells [13]) was “induce classical apoptotic features including cell shrinkage, nuclear condensation, cell density reduction, and apoptotic body formation”.

Reference: patent US12144789B2, “Pharmaceutical composition exhibiting anti-tumor activity, method for treating patient suffering from cancer and method for inhibiting tumor growth” (Gongwin Biopharm Co., Ltd., priority 2016, dated 2024)
